{
  "source": "paper PMC4710668",
  "about": "“Bioactivation of food genotoxicants 5-hydroxymethylfurfural and furfuryl alcohol by sulfotransferases from human, mouse and rat: a comparative study” (Archives of Toxicology, 2014)",
  "assay_in_all_cases": "HMF sulfoconjugation assay",
  "format_in_all_cases": "biochemical",
  "key": {"mSult2a1": {"biological_target": "T1, mSult2a1 (Mus musculus, UniProt P52843)", "T1 construct": "made in house; host or cells: Salmonella typhimurium TA1538 (cytosolic fraction, enzyme not purified)", "T1 sequence (P52843 1-285)": "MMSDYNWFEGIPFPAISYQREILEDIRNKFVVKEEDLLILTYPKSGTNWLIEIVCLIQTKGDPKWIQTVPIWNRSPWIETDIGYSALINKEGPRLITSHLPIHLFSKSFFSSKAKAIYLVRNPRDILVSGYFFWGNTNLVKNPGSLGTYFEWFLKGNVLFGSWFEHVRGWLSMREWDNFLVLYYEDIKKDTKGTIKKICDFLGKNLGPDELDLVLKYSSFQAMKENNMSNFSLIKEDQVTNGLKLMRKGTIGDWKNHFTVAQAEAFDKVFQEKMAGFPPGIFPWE", "method_in_brief": "(§1)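 HMF at different concentrations was sulfated by SULT-expressing S. typhimurium cytosol with 50 µM PAPS. Incubation ran 30 min at 37 °C under linear conditions, and SMF was quantified by UPLC-MS/MS.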"}, "hSULT2B1b": {"biological_target": "T2, hSULT2B1b (Homo sapiens, UniProt O00204)", "T2 construct": "made in house; host or cells: Salmonella typhimurium TA1538 (cytosolic fraction, not purified)", "T2 sequence (O00204 1-365)": "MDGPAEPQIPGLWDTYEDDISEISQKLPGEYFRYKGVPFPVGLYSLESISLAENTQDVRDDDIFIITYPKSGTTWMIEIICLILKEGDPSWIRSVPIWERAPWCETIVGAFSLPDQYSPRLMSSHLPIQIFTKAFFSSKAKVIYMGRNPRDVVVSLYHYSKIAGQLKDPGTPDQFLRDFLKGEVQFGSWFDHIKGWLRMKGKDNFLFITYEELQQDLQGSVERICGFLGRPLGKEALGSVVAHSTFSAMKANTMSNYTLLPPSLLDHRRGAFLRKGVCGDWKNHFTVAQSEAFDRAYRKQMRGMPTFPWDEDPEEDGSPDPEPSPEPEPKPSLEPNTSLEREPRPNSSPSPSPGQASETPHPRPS", "method_in_brief": "as §1"}, "hSULT1E1": {"biological_target": "T3, hSULT1E1 (Homo sapiens, UniProt P49888)", "T3 construct": "made in house; host or cells: Salmonella typhimurium TA1538 (cytosolic fraction, not purified)", "T3 sequence (P49888 1-294)": "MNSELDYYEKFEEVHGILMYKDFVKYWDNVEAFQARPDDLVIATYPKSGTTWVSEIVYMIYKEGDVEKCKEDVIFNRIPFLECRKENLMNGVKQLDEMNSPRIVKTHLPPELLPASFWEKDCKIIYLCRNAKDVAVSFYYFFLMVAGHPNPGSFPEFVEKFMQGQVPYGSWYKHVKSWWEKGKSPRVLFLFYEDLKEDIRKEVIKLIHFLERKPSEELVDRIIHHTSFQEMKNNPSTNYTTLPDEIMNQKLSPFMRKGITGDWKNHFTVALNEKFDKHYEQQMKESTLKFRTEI", "method_in_brief": "as §1"}, "hSULT1A1": {"biological_target": "T4, hSULT1A1 (Homo sapiens, UniProt P50225)", "T4 construct": "made in house; host or cells: Salmonella typhimurium TA1538 (cytosolic fraction, not purified)", "T4 sequence (P50225 whole entry)": "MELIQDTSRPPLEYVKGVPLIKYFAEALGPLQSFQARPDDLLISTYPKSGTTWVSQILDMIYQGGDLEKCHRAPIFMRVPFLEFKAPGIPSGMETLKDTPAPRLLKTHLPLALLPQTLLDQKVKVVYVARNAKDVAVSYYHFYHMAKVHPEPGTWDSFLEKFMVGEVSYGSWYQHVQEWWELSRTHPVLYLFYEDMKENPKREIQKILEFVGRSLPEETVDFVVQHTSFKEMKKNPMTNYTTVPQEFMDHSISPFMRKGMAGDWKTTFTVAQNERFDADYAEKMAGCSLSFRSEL", "method_in_brief": "as §1"}},
  "data": [
    {"smiles": "O=Cc1ccc(CO)o1", "note": "[HMF, 5-Hydroxymethylfurfural]", "values": [
      {"measurement": "Rate of sulfoconjugation", "setting": "mSult2a1; 0.1 mM HMF", "result": "<0.5", "unit": "pmol/mg/min"},
      {"measurement": "Rate of sulfoconjugation", "setting": "mSult2a1; 1 mM HMF", "result": "1.3 ± 0.2", "unit": "pmol/mg/min"},
      {"measurement": "Rate of sulfoconjugation", "setting": "mSult2a1; 10 mM HMF", "result": "9.0 ± 0.9", "unit": "pmol/mg/min"},
      {"measurement": "Rate of sulfoconjugation", "setting": "mSult2a1; 100 mM HMF", "result": "13.1 ± 1.7", "unit": "pmol/mg/min"},
      {"measurement": "Rate of sulfoconjugation", "setting": "hSULT2B1b; 0.1 mM HMF", "result": "<0.5", "unit": "pmol/mg/min"},
      {"measurement": "Rate of sulfoconjugation", "setting": "hSULT2B1b; 1 mM HMF", "result": "<0.5", "unit": "pmol/mg/min"},
      {"measurement": "Rate of sulfoconjugation", "setting": "hSULT2B1b; 10 mM HMF", "result": "<0.5", "unit": "pmol/mg/min"},
      {"measurement": "Rate of sulfoconjugation", "setting": "hSULT2B1b; 100 mM HMF", "result": "<0.5", "unit": "pmol/mg/min"},
      {"measurement": "Rate of sulfoconjugation", "setting": "hSULT1E1; 0.1 mM HMF", "result": "<0.5", "unit": "pmol/mg/min"},
      {"measurement": "Rate of sulfoconjugation", "setting": "hSULT1E1; 1 mM HMF", "result": "1.0 ± 0.2", "unit": "pmol/mg/min"},
      {"measurement": "Rate of sulfoconjugation", "setting": "hSULT1E1; 10 mM HMF", "result": "5.7 ± 0.8", "unit": "pmol/mg/min"},
      {"measurement": "Rate of sulfoconjugation", "setting": "hSULT1E1; 100 mM HMF", "result": "7.7 ± 1.2", "unit": "pmol/mg/min"},
      {"measurement": "ratio of HMF sulfoconjugation efficiency, hSULT1A1 vs hSULT1C2", "setting": "hSULT1A1", "result": "about 19 times"},
      {"measurement": "Rate of sulfoconjugation", "setting": "hSULT1A1; 0.1 mM HMF", "result": "20.4 ± 2.8", "unit": "pmol/mg/min"},
      {"measurement": "Rate of sulfoconjugation", "setting": "hSULT1A1; 1 mM HMF", "result": "171 ± 18", "unit": "pmol/mg/min"},
      {"measurement": "Rate of sulfoconjugation", "setting": "hSULT1A1; 10 mM HMF", "result": "641 ± 100", "unit": "pmol/mg/min"},
      {"measurement": "Rate of sulfoconjugation", "setting": "hSULT1A1; 100 mM HMF", "result": "699 ± 170", "unit": "pmol/mg/min"},
      {"measurement": "K M", "setting": "hSULT1A1; HMF sulfoconjugation, Michaelis-Menten fit", "result": "3.2 ± 0.4", "unit": "mM"}
    ]}
  ]
}
